Data from paper PMC3525754 (Biochemistry, 2012).

Assays:
[1] = biological target: T1, DrPRODH (proline dehydrogenase from Deinococcus radiodurans R1) (Deinococcus radiodurans, UniProt Q9RW55); assay: X-ray crystal structure, […] Å; assay type: binding; conditions: crystal reduced by soaking in 50 mM sodium dithionite
[2] = biological target: T1, DrPRODH (proline dehydrogenase from Deinococcus radiodurans R1); assay: X-ray crystal structure, […] Å; assay type: binding; conditions: oxidized enzyme complexed with THFA; two ribityl conformations
[3] = biological target: T1, DrPRODH (proline dehydrogenase from Deinococcus radiodurans R1); assay: steady-state CoQ1 reduction, absorbance […] nm; assay type: biochemical

T1 sequence (Q9RW55 whole entry): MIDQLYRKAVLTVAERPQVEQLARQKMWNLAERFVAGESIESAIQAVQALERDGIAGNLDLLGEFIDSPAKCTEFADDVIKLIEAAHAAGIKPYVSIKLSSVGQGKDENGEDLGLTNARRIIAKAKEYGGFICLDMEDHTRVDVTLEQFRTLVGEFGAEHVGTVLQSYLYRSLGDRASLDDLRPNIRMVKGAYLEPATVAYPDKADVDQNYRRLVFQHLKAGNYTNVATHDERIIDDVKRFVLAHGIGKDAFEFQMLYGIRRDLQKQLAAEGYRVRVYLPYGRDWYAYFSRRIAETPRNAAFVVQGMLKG

Compound: Cc1cc2c(cc1C)N(C[C@H](O)[C@H](O)[C@H](O)COP(=O)(O)OP(=O)(O)OC[C@H]1O[C@@H](n3cnc4c(N)ncnc43)[C@H](O)[C@@H]1O)c1[nH]c(=O)[nH]c(=O)c1N2 [reduced FAD]
- X-ray crystal structure, 1.75 Å [1]: The reduced flavin of DrPRODHr exhibits just one ribityl conformation

Compound: Cc1cc2nc3c(=O)[nH]c(=O)nc-3n(C[C@H](O)[C@H](O)[C@H](O)COP(=O)(O)OP(=O)(O)OC[C@H]3O[C@@H](n4cnc5c(N)ncnc54)[C@H](O)[C@@H]3O)c2cc1C [FAD]
- X-ray crystal structure, 1.36 Å [2]: The oxidized flavin exhibits two conformations

Compound: O=C(O)[C@@H]1CCCO1 [THFA]
- Ki [3]: 38 mM
